Measurements published in patent US20070167408A1, “NOVEL ALKYL PHOSPHOLIPID DERIVATIVES WITH REDUCED CYTOTOXICITY AND USES THEREOF” (ZENTARIS GmbH, priority 2005, published 2007).
Like-named read-outs stand apart in the source and are kept apart here.

Legend:
Type in all cases: cell-based
[1] = tested on: KB/HeLa (human cervix carcinoma) cells; test: XTT cytotoxicity assay, KB/HeLa cells; conditions: read-out: KB/HELA [IC50 (μM)]
Protocol: (§1) Cytotoxicity of selected compounds of the invention against different mammalian cell lines was assessed as follows.
(§2) Human tumor cell lines KB/HeLa (ATCC CCL17, human cervix carcinoma), PC3 (ATCC CRL1435, human prostate carcinoma) and RKOp21 (human colon adenocarcinoma; Schmidt et al., Oncogene 2000, 19: 2423-2429) cells were used in an automated XTT screening assay for the assessment of cytotoxicity.
(§3) The XTT assay quantifies cellular metabolic activity which correlates with cell viability and cell number. Test compounds (selected compounds of the invention and known substances as controls) are dissolved in culture medium at 600 μM and added to the tumor cells in 10 different concentrations in a semi-logarithmic fashion starting from 100 μM as highest concentration.
(§4) 48 h later cellular metabolic activity of cells treated with test compounds is quantified by measurement of the absorbance at 490 nm (conversion of XTT dye) in comparison to untreated control cells (100% viability).
(§5) KB/HeLa and PC3 cells were cultivated in RPMI 1640 medium (Gibco, Cat. No. 42401-018) supplemented with 10% heat inactivated fetal calf serum (FCS, Biochrom AG, Cat. No. S0115), 2 mM L-glutamine (Gibco, Cat. No. 25030-24) and 2% Penicillin-Streptomycin (PenStrep, Gibco, Cat. No. 15140-122). RKOp21 cells were grown in DMEM+GlutaMAXTM-I medium (Gibco, Cat. No. 61965-026) supplemented with 10% heat inactivated fetal calf serum (FCS, Biochrom AG, Cat. No. S0115), 2 mM L-glutamine (Gibco, Cat. No. 25030-24), 2% Penicillin-Streptomycin (PenStrep, Gibco, Cat. No. 15140-122) and 1% 1M HEPES (Gibco, Cat. No. 15630-056). All cells were cultured at 37° C. in 5% CO2 humidified air.
(§6) On the first day of the experiment cells were harvested from exponential phase cultures by trypsination, counted and plated into 96 well flat-bottom micro titer plates depending on the cell line as listed below:
(§7) After a 24 h recovery to allow the cells to resume exponential growth, the test compounds were diluted immediately prior to use and transferred in 25 μl volume to the wells.
(§8) Following 2 days of continuous drug exposure 50 μl of freshly prepared XTT-PMS solution {2% 0.386 mg/ml PMS (N-Methyl Dibenzopyrazine Methylsulphate; Sigma, Cat. No. P9625) in PBS+98% 1 mg/ml XTT (Sodium 2,3-bis(2-methoxy-4-nitro-5-sulfophenyl)-5-[(phenylamino)carbonyl]-2H-Tetrazolium; Serva, Cat. No. 38450) in RPMI 1640 medium without phenol red} was added to the wells. To measure the proportion of living cells, the cells were incubated for 3 h with XTT-PMS reagent at 37° C., 5% CO2, humidified atmosphere allowing to form the formazan salt. The amount of soluble formazan salt produced by cellular reduction of XTT is quantified by measuring the absorbance at 490 nm using the Biomek® 2000 ELISA plate reader. %-inhibition (cytotoxicity) of each test compound was calculated in relation to untreated control cells. Inhibition curves were generated and IC50 values calculated by using GraphPad Prism.

[2] = tested on: PC3 (human prostate carcinoma) cells; test: XTT cytotoxicity assay, PC3 cells; conditions: read-out: PC3 [IC50 (μM)]
Protocol: as §1, §2, §3
(§9) In a second set of experiments employing PC3, RKOp21 and SKOV-3 (ATCC HTB-77, human ovary adenocarcinoma) cells, test and reference compounds were dissolved in 70% Ethanol/30% H2O in a stock concentration of 10 mM and diluted in cell culture medium to yield either 31.6 μM (PC3 and RKOp21) or 100 μM (SKOV-3) final concentration.
as §4, §5, §6, §7, §8

[3] = tested on: RKOp21 (human colon adenocarcinoma) cells; test: XTT cytotoxicity assay, RKOp21 cells; conditions: read-out: RKOp21 [IC50 (μM)]
Protocol: as §1, §2, §3, §9, §4, §5, §6, §7, §8

[4] = Homo sapiens, HeLa, XTT, 48 h exposure
[5] = Homo sapiens, PC-3, XTT, 48 h exposure
[6] = Homo sapiens, XTT, 48 h exposure

| SMILES | IC50 [1, 4] | IC50 [2, 5] | IC50 [3, 6] | also measured |
| --- | --- | --- | --- | --- |
| CC(C)CCCC(C)C1CCC2C3CCC4CC(OP(=O)([O-])OCC[N+](C)(C)C)CCC4(C)C3CCC12C (stereo not drawn) [Compound 41] | > 100 µM | > 100 µM | > 100 µM | – |
| CC(C)CCCC(C)C1CCC2C3CC=C4CC(OP(=O)([O-])OCC[N+](C)(C)C)CCC4(C)C3CCC12C (stereo not drawn) [Compound 46] | > 100 µM | > 100 µM | > 100 µM | – |
| CC(C)CCCC(C)C1CCC2C3=CC=C4CC(OP(=O)([O-])OCC[N+](C)(C)C)CCC4(C)C3CCC21C (stereo not drawn) [Compound 48] | > 100 µM | > 100 µM | > 100 µM | – |
| CCCCC/C=C\C/C=C\CCCCCCCCOP(=O)([O-])OCC[N+](C)(C)C [Compound 55] | > 100 µM | > 100 µM | > 100 µM | – |
| C[C@H](CCC(=O)O)[C@H]1CCC2[C@@H]3CC[C@@H]4C[C@H](OP(=O)([O-])OCC[N+](C)(C)C)CC[C@]4(C)[C@H]3CC[C@@]21C (stereo partly drawn) [Compound 59] | > 100 µM | > 100 µM | > 100 µM | – |
| CCCCCCCCCCCCCCCCOP(=O)(O)OCCN1CCOCC1 [Compound 60] | > 100 µM | > 100 µM | > 100 µM | – |
| CCCCCCCCCCCCCCCCOP(=O)(O)OCCN1CCCC1 [Compound 63] | > 100 µM | > 100 µM | > 100 µM | – |
| CCCCCCCCCCCCCCCCOP(=O)([O-])OC1C[N+]2(C)CCC1CC2 (stereo not drawn) [Compound 76] | 11.3 µM | 25 µM | 68.8 µM | – |
| CCCCCCCC/C=C\CCCCCCCCOP(=O)([O-])OCC[N+](C)(C)CC [Compound 82] | 37.7 µM | 45.6 µM | 20.5 µM | – |
| CCCCCCCCCCCCCCCCCCCCOP(=O)([O-])OC1CCC[N+](C)(C)CC1 (stereo not drawn) [Compound 86] | 75.6 µM | > 100 µM | > 100 µM | – |
| CCCCCCCC/C=C\CCCCCCCCOP(=O)([O-])OCC[N+]1(C)CCCC1 [Compound 91] | > 100 µM | 86.8 µM | > 100 µM | – |
| CCCCCCCC/C=C\CCCCCCCCOP(=O)([O-])OCC[N+]1(C)CCCCC1 [Compound 97] | > 100 µM | 49.4 µM | 89.4 µM | – |
| CCCCCCCCCCOCCOCCOP(=O)([O-])OCC[N+](C)(C)C [Compound 123] | 39.1 µM | 21.8 µM | 76.6 µM | – |
| CCCCCCCC/C=C\CCCCCCCCCCCCOP(=O)([O-])OCC[N+]1(C)CCC(O)CC1 (stereo not drawn) [Compound 133] | > 100 µM | 81.6 µM | > 100 µM | – |
| CCCCCCCCC#CCCCCCCCCOP(=O)([O-])OCC[N+]1(C)CCCCC1 [Compound 145] | > 100 µM | > 100 µM | > 100 µM | – |
| CCCCCCCCCCCCCCCCCCOP(=O)([O-])OCc1cccc[n+]1C [Compound 147] | > 100 µM | > 100 µM | > 100 µM | – |

| SMILES | IC50 [1, 4] | IC50 [2, 5] | IC50 [3, 6] | also measured |
| --- | --- | --- | --- | --- |
| CCCCCCCCCCCCCCCCCCOP(=O)([O-])OCC1CC[N+](C)(C)CC1 [Compound 152] | 32.3 µM | 23.9 µM | > 100 µM | – |
| CCCCCCCCCCCCCCCCOP(=O)([O-])OCC1CC[N+](C)(C)CC1 [Compound 153] | 38.2 µM | 39.8 µM | > 100 µM | – |
| CCCCCCCCCCCCCCCCCCOP(=O)([O-])OCCN1CC[N+](C)(C)CC1 [Compound 154] | 12.6 µM | 18.2 µM | 77.4 µM | – |
| CCCCCCCC/C=C\CCCCCCCCCCCCOP(=O)([O-])OCC[As+](CC)(CC)CC [Compound 159] | – | – | – | IC50 ([1]; XTT, 48 h exposure): > 100 µM; IC50 ([2]; XTT, 48 h exposure): 37.7 µM; IC50 ([3]; XTT, 48 h exposure): 21 µM |
| CCCCCCCC/C=C\CCCCCCCCCCCCOP(=O)([O-])OCCC1=C(C)[N+](C)=CC1 [Compound 172] | > 100 µM | 29.8 µM | 65.5 µM | – |
| CCCCCCC1CCC(CCOP(=O)([O-])OCC[N+]2(C)CCCCC2)CC1 (stereo not drawn) [Compound 180] | > 100 µM | > 100 µM | > 100 µM | – |
| CCCCCCCC/C=C\CCCCCCCCCCCCOP(=O)([O-])OC1CCC[N+](C)(CCc2ccccc2)CC1 (stereo not drawn) [Compound 185] | > 100 µM | 30.4 µM | > 100 µM | – |
| CCCCCCCCCCCCCCCCOP(=O)([O-])OCC[n+]1cccc(C(=O)OCC)c1 [Compound 190] | 100 µM | 73.3 µM | > 100 µM | – |
| CCCCCCCCCCCCCCCCOP(=O)([O-])OC1CC[N+](CC)(CC)CC1 [Compound 200] | 66.4 µM | 34.5 µM | > 100 µM | – |
| CCCCCCCC/C=C\CCCCCCCCCCCCOP(=O)([O-])OC1CC[N+](CC)(CC)CC1 [Compound 203] | > 100 µM | 63.1 µM | > 100 µM | – |
| CCC(C)CC(C)CC(C)CC(C)COP(=O)([O-])OCC[N+](C)(C)C (stereo not drawn) [Compound 235] | > 100 µM | > 100 µM | > 100 µM | – |
| CCCCCCCC/C=C\CCCCCCCCOCCOCCOP(=O)([O-])OC1CC[N+](C)(C)CC1 [Compound 256] | > 100 µM | 82 µM | > 100 µM | – |
| CCC(C)CC(C)CC(C)CC(C)COP(=O)([O-])OC1CC[N+](C)(C)CC1 (stereo not drawn) [Compound 258] | > 100 µM | > 100 µM | > 100 µM | – |
| C#CC[N+]1(C)CCC(OP(=O)([O-])OCCCCCCCCCCCCCCCC)CC1 (stereo not drawn) [Compound 262] | 10.1 µM | 31.2 µM | > 100 µM | – |
| CCCCCCCC/C=C\CCCCCCCCCCCCOP(=O)([O-])OCC[N+](CC)(CC)CC [Compound 275] | > 100 µM | 69.2 µM | 44.4 µM | – |
| CCCCCCCC/C=C\CCCCCCCC(=O)OCC(COP(=O)([O-])OCC[As+](C)(C)C)OC(=O)CCCCCCC/C=C\CCCCCCCC (stereo not drawn) [Compound 311] | – | – | – | IC50 ([1]; Homo sapiens, HeLa, 48 h): > 100 µM; IC50 ([2]; Homo sapiens, PC-3, 48 h): > 100 µM; IC50 ([3]; Homo sapiens, 48 h): > 100 µM |
